Measured values from the NIST ThermoML archive (doi:10.1021/je060271a).
± gives the expanded uncertainty stated by the source.

Settings: 283.14 K, Liquid, Vibrating tube method

CCCCCCC(=O)OCC(COC(=O)CCCCCC)(COC(=O)CCCCCC)COC(=O)CCCCCC [pentaerythritol tetraheptanoate]
Settings	mass density [kg/m3]
5880.4 kPa	989.3 ± 1.2
5889.4 kPa	989.2 ± 1.2
5899.2 kPa	989.3 ± 1.2
5907.7 kPa	989.3 ± 1.2
5916.4 kPa	989.3 ± 1.2
5925.4 kPa	989.4 ± 1.2
5935.4 kPa	989.3 ± 1.2
5944.2 kPa	989.2 ± 1.2
5952.8 kPa	989.3 ± 1.2
5962.7 kPa	989.3 ± 1.2
5971.7 kPa	989.2 ± 1.2
5980.7 kPa	989.3 ± 1.2
5989.5 kPa	989.3 ± 1.2
6000.4 kPa	989.2 ± 1.2
6009 kPa	989.3 ± 1.2
6017.5 kPa	989.3 ± 1.2
6028.4 kPa	989.4 ± 1.2
6037.6 kPa	989.3 ± 1.2
6046.5 kPa	989.3 ± 1.2
6055.5 kPa	989.5 ± 1.2
6066.2 kPa	989.3 ± 1.2
6075.2 kPa	989.4 ± 1.2
6084.6 kPa	989.5 ± 1.2
6094.9 kPa	989.3 ± 1.2
6104.1 kPa	989.3 ± 1.2
6113.4 kPa	989.5 ± 1.2
6124.2 kPa	989.4 ± 1.2
6133.5 kPa	989.4 ± 1.2
6142.8 kPa	989.4 ± 1.2
6153.4 kPa	989.4 ± 1.2
6162.9 kPa	989.4 ± 1.2
6172.4 kPa	989.4 ± 1.2
6182.1 kPa	989.4 ± 1.2
6193.1 kPa	989.4 ± 1.2
6202.5 kPa	989.4 ± 1.2
6212.1 kPa	989.4 ± 1.2
6223.2 kPa	989.5 ± 1.2
6232.9 kPa	989.5 ± 1.2
6242.4 kPa	989.5 ± 1.2
6254.1 kPa	989.4 ± 1.2
6263.6 kPa	989.5 ± 1.2
6273.3 kPa	989.5 ± 1.2
6282.8 kPa	989.6 ± 1.2
6294.6 kPa	989.5 ± 1.2
6304.3 kPa	989.6 ± 1.2
6314.1 kPa	989.6 ± 1.2
6325.9 kPa	989.5 ± 1.2
6335.9 kPa	989.5 ± 1.2
6345.6 kPa	989.6 ± 1.2
6355.6 kPa	989.5 ± 1.2
6367.7 kPa	989.5 ± 1.2
6377.5 kPa	989.6 ± 1.2
6387.7 kPa	989.6 ± 1.2
6397.9 kPa	989.6 ± 1.2
6410 kPa	989.6 ± 1.2
6420.4 kPa	989.6 ± 1.2
6431 kPa	989.5 ± 1.2
6440.8 kPa	989.5 ± 1.2
6452.9 kPa	989.6 ± 1.2
6463.6 kPa	989.5 ± 1.2
6473.8 kPa	989.6 ± 1.2
6484 kPa	989.6 ± 1.2
6494.6 kPa	989.6 ± 1.2
6506.6 kPa	989.6 ± 1.2
6517 kPa	989.6 ± 1.2
6527.7 kPa	989.6 ± 1.2
6540.3 kPa	989.7 ± 1.2
6550.9 kPa	989.5 ± 1.2
6564.2 kPa	989.7 ± 1.2
6573.4 kPa	989.7 ± 1.2
6583.9 kPa	989.7 ± 1.2
6596.7 kPa	989.7 ± 1.2
6607.2 kPa	989.6 ± 1.2
6618.3 kPa	989.7 ± 1.2
6631.8 kPa	989.7 ± 1.2
6642.5 kPa	989.7 ± 1.2
6653 kPa	989.7 ± 1.2
6664.1 kPa	989.7 ± 1.2
6677.7 kPa	989.8 ± 1.2
6688.4 kPa	989.7 ± 1.2
6699.5 kPa	989.7 ± 1.2
6712.6 kPa	989.7 ± 1.2
6723.8 kPa	989.8 ± 1.2
6735.3 kPa	989.8 ± 1.2
6746.7 kPa	989.9 ± 1.2
6759.9 kPa	989.7 ± 1.2
6771.5 kPa	989.7 ± 1.2
6782.8 kPa	989.8 ± 1.2
6794.2 kPa	989.8 ± 1.2
6807.8 kPa	989.8 ± 1.2
6818.9 kPa	989.8 ± 1.2
6830.8 kPa	989.8 ± 1.2
6844.4 kPa	989.8 ± 1.2
6856.3 kPa	989.7 ± 1.2
6868.3 kPa	989.8 ± 1.2
6879.7 kPa	989.9 ± 1.2
6894 kPa	989.9 ± 1.2
6905.9 kPa	989.9 ± 1.2
6917.3 kPa	989.9 ± 1.2
6929.4 kPa	989.9 ± 1.2
6943.4 kPa	989.9 ± 1.2
6955.3 kPa	989.9 ± 1.2
6967.2 kPa	989.9 ± 1.2
6981.6 kPa	989.8 ± 1.2
6993.5 kPa	989.9 ± 1.2
7005.9 kPa	989.9 ± 1.2
7020.3 kPa	989.8 ± 1.2
7032.3 kPa	990 ± 1.2
7045.1 kPa	990.1 ± 1.2
7057.7 kPa	989.8 ± 1.2
7072.1 kPa	989.9 ± 1.2
7084.7 kPa	990 ± 1.2
7096.9 kPa	989.9 ± 1.2
7109.5 kPa	990 ± 1.2
7124.4 kPa	989.9 ± 1.2
7137 kPa	990 ± 1.2
7149.8 kPa	990 ± 1.2
7165.1 kPa	990 ± 1.2
7178.1 kPa	989.9 ± 1.2
7190.7 kPa	990 ± 1.2
7203.7 kPa	990 ± 1.2
7219 kPa	990 ± 1.2
7232.1 kPa	990 ± 1.2
7244.9 kPa	990.1 ± 1.2
7258.2 kPa	990.1 ± 1.2
7273.8 kPa	990.1 ± 1.2
7287 kPa	990 ± 1.2
7300 kPa	990.1 ± 1.2
7315.9 kPa	990.1 ± 1.2
7329.2 kPa	990 ± 1.2
7342.5 kPa	990.1 ± 1.2
7355.8 kPa	990 ± 1.2
7372.2 kPa	990.3 ± 1.2
7385.8 kPa	990.1 ± 1.2
7399.3 kPa	990.1 ± 1.2
7413.1 kPa	990.1 ± 1.2
7429.3 kPa	990.2 ± 1.2
7442.8 kPa	990.2 ± 1.2
7456.9 kPa	990.2 ± 1.2
7471.1 kPa	990.2 ± 1.2
7487.7 kPa	990.1 ± 1.2
7501.3 kPa	990.2 ± 1.2
7515.3 kPa	990.1 ± 1.2
7532 kPa	990.3 ± 1.2
7546.5 kPa	990.1 ± 1.2
7561.7 kPa	990.1 ± 1.2
7576.2 kPa	990.3 ± 1.2
7590.2 kPa	990.3 ± 1.2
7604.7 kPa	990.2 ± 1.2
7622 kPa	990.3 ± 1.2
7636.1 kPa	990.3 ± 1.2
7651 kPa	990.3 ± 1.2
7668.2 kPa	990.3 ± 1.2
7682.9 kPa	990.2 ± 1.2
7697.4 kPa	990.3 ± 1.2
7715.2 kPa	990.2 ± 1.2
7729.3 kPa	990.4 ± 1.2
7744.5 kPa	990.4 ± 1.2
7760.2 kPa	990.3 ± 1.2
7775.4 kPa	990.4 ± 1.2
7793 kPa	990.3 ± 1.2
7808 kPa	990.4 ± 1.2
7823 kPa	990.2 ± 1.2
7841 kPa	990.4 ± 1.2
7855.8 kPa	990.3 ± 1.2
7871.2 kPa	990.4 ± 1.2
7889.8 kPa	990.4 ± 1.2
7904.8 kPa	990.4 ± 1.2
7920.5 kPa	990.5 ± 1.2
7939.2 kPa	990.4 ± 1.2
7955 kPa	990.5 ± 1.2
7970.7 kPa	990.4 ± 1.2
7986.3 kPa	990.4 ± 1.2
8005.3 kPa	990.5 ± 1.2
8020.9 kPa	990.5 ± 1.2
8039.9 kPa	990.5 ± 1.2
8056 kPa	990.4 ± 1.2
8071.5 kPa	990.5 ± 1.2
8091.2 kPa	990.5 ± 1.2
8107.4 kPa	990.5 ± 1.2
8123.4 kPa	990.4 ± 1.2
8140 kPa	990.5 ± 1.2
8156.7 kPa	990.5 ± 1.2
8176.8 kPa	990.5 ± 1.2
8193.5 kPa	990.4 ± 1.2
8210.2 kPa	990.6 ± 1.2
8226.8 kPa	990.5 ± 1.2
8246.8 kPa	990.6 ± 1.2
8263.9 kPa	990.5 ± 1.2
8280.8 kPa	990.7 ± 1.2
8301 kPa	990.6 ± 1.2
8317.9 kPa	990.5 ± 1.2
8338.2 kPa	990.6 ± 1.2
8355.3 kPa	990.5 ± 1.2
8372.7 kPa	990.6 ± 1.2
8393.6 kPa	990.6 ± 1.2
8411 kPa	990.6 ± 1.2
8428.8 kPa	990.6 ± 1.2
8446.4 kPa	990.8 ± 1.2
8467.8 kPa	990.7 ± 1.2
8485.5 kPa	990.7 ± 1.2
8503.5 kPa	990.8 ± 1.2
8524.7 kPa	990.8 ± 1.2
8542.8 kPa	990.8 ± 1.2
8560.9 kPa	990.8 ± 1.2
8578.8 kPa	990.9 ± 1.2
8601.1 kPa	990.7 ± 1.2
8619.5 kPa	990.8 ± 1.2
8638.2 kPa	990.8 ± 1.2
8660.8 kPa	990.7 ± 1.2
8679.6 kPa	990.8 ± 1.2
8698 kPa	990.8 ± 1.2
8716.6 kPa	990.8 ± 1.2
8739.2 kPa	990.7 ± 1.2
8758 kPa	990.9 ± 1.2
8777.1 kPa	991 ± 1.2
8800.4 kPa	990.8 ± 1.2
8820.1 kPa	990.9 ± 1.2
8839.6 kPa	990.9 ± 1.2
8863 kPa	990.9 ± 1.2
8882.8 kPa	990.9 ± 1.2
8902.7 kPa	991 ± 1.2
8923.2 kPa	990.9 ± 1.2
